Source: paper PMC6304418, “A Novel Compound Targeting Protease Receptor 1 Activators for the Treatment of Glioblastoma” (Frontiers in Neurology, 2018)
Where a SMILES comes first, the peptide text is derived from it. The star is where a group is joined. Tos = Cc1ccc(S(=O)(=O)*)cc1; CH2Cl = ClC*

Columns and labels:
[1] = system: thrombin mediated PAR1 activation (pERK/ERK) in CNS-1 cells; assay: ERK activation (pERK/ERK, Western blot) in CNS-1 cells; assay type: cell-based, rat; conditions: thrombin 1 U/ml + SIXAC 100 nM, 10 min; n = 3; thrombin alone 2.09 ± 0.28, p < 0.03
Procedure: Cells were seeded (1 × 10^6 cells/75 cm^2 flask) and incubated for 24 h. Then the medium was replaced by FCS-free medium for another 24 h. The cells were treated for 10 min with thrombin (1 U/ml), SIXAC (100 nM), a combination of thrombin and SIXAC or a FCS-free medium which was used as a control (n = 3 for each treatment). The cells were washed and lysed in RIPA buffer (containing in mM: 50 TRIS HCl pH 8, 150 NaCl, 1% NP-40, 0.5% sodium deoxycholate, and 0.1% SDS), a protease inhibitor cocktail (Merck Millipore 539134, 1:100), 0.1 mM sodium orthovanadate and 2 mM PMSF. The cells were scraped, collected and centrifuged (16,000g × 20 min) at 4°C. The supernatants were collected, and protein concentration was determined by means of a bicinchoninic acid (BCA) assay. Each sample (20 μg) was separated by SDS-polyacrylamide gel electrophoresis. The proteins were transferred onto nitrocellulose membranes. Membranes were incubated with mouse anti-phosphorylated Extracellular signal-Regulated Kinase (pERK) antibody (1:10,000, M8159, Sigma), for 1.5 h at room temperature (RT) and washed with Tris-buffered saline and 0.1% Tween 20 (TBST). Membranes were then incubated at RT with horseradish peroxidase-conjugated goat anti-mouse antibody (1:10,000, Jackson Immunoresearch Laboratories). […] Protein bands were detected by a peroxidase-based enhanced chemiluminescence (ECL) method. […]

[2] = system: CNS-1 glioma in Lewis rats; assay: In-vivo imaging study (MRI) in CNS-1 GBM rat model
Procedure: (§1) Adult Lewis rats (270–335 g, Harlan, Jerusalem, Israel) were housed in a standard conditions and fed a standard diet. Water was available ad libitum. Ambient temperature was set to 22°C to 23°C with day/night light control. The protocols of this study were approved by the Sheba Medical Center Committee on the Use and Care of Animals (permit No: 972/15) according to the ARRIVE Guidelines. Maximum efforts were made in order to minimize suffering and pain. The humane endpoints were the inability to rise or ambulate and a severe weight loss (20% of initial body weight).
(§2) The rats were anesthetized via IM injection of Ketamine-Xylazine (100 mg/kg, 16 mg/kg, respectively). A midline scalp incision was made, and a 1 mm burr hole was drilled (coordinates 1 mm lateral × 3 mm posterior to the Bregma). Tumor implantation was performed using a 30 gauge needle attached to a 25 μl syringe containing 10 μl of CNS-1 pellet 5 × 10^7cells/ml. The rats were positioned into a stereotactic frame in order to inject the cells at the right corpus striatum 5.5 mm deep in the brain tissue. […] The needle was gently pulled out 1 min after the pump was stopped. The burr hole was then sealed with bone wax and the skin was sutured.
MRI was performed using a clinical interventional 1.5T MR system. The rats were anesthetized and Gd-based contrast agent was injected IP (Gd-DOTA, 0.02 mmol/kg, Dotarem, Guerbert). MRI sequences included contrast enhanced T1-weighted MRI for depiction of the tumor, T2-weighted MRI for depiction of edema and gradient-echo MRI for depiction of possible hemorrhages. The first MRI scan was used to rank the tumors into three categories based on the size evaluation in order to form groups with a similar distribution of initial tumor size. Regions of interest (ROIs) were plotted over enhanced T1 and T2 weighted MR images. The volume of the tumors, calculated from the T1-weighted images, was then subtracted from the enhancing volume, calculated from the T2-weighted images, in order to determine the volume of surrounding edema.
The animals were implanted with osmotic pumps attached to brain infusion tube (Alzet, Cupertino, CA, USA). Implantation was performed 5 days after tumor inoculation. […]
Rats were allocated to three groups. […] 7 days following induction of treatment (day 12) a follow-up MRI imaging (2nd) was performed and the size of the tumor and edema surrounding the tumor were analyzed by standard ROI manual techniques as described above. In order to eliminate the effect of initial tumor and edema sizes variance, the tumor and edema sizes increase were calculated by using the ratio of the 2nd MRI scan divided by the 1st MRI scan ([41], [42]).

[3] = system: CNS-1 inoculated Lewis rats; assay: Survival study in CNS-1 GBM rat model; assay type: in vivo
Procedure: as §1, §2
The animals were implanted with osmotic pumps attached to brain infusion tube (Alzet, Cupertino, CA, USA). Implantation was performed 5 days after tumor inoculation. Two different types of osmotic pump were used: in the imaging study the pumps implanted released 1 μl/h for 7 days (model #2001), while in the survival study the pumps released 0.5 μl/h for 14 days (model #2002). The pumps were preloaded with either saline or SIXAC (in indicated concentrations). The pumps were primed in saline bath at 37°C for 24 h as a pre-implantation procedure and the function of each pump was reassured by assessing dripping. The Alzet pump was implanted subcutaneously, a catheter was placed intracranially thus releasing substances directly to the tumor core.
Rats were allocated to three groups. 1. Control group (n = 15) treated with alzet-pumps contain saline. 2. Moderate dose treated group (n = 16) treated with alzet-pump containing SIXAC (2μg/kg/day). 3. High dose treated group (n = 14) treated with alzet-pumps contain SIXAC (20μg/kg/day). Survival was registered daily and the brains were dissected immediately after death determination and were placed in 4% PFA and kept at 4°C. Upon MRI scanning the brains were moved to PBS containing tubes, scanning was performed and ROI were quantified.

Cc1ccc(S(=O)(=O)N[C@@H](C)C(=O)N[C@H](C(=O)N[C@@H](CC(C)C)C(=O)N[C@@H](CC(=O)O)C(=O)N2CCC[C@H]2C(=O)N[C@@H](CCCNC(=N)N)C(=O)CCl)[C@@H](C)O)cc1 [SIXAC] (Tos-ATLDPR-CH2Cl)
pERK/ERK ratio, thrombin with SIXAC [1]: 0.99 ± 0.21
tumor enhancement means of ratios, moderate dose vs. low dose and saline (in words) ([2]; 2μg/kg/day vs. 0.2μg/kg/day and saline): non-significant reduction in tumor enhancement means of ratios
edema means of ratios, moderate dose vs. low dose and saline (in words) ([2]; 2μg/kg/day vs. 0.2μg/kg/day and saline, p < 0.05): Significant reduction in edema means of ratios
edema volume ratio (2nd/1st MRI, T2) ([2]; 2μg/kg/day, intracranial Alzet pump, 7 days, day 12/day 5, n = 9, control 8.8 ± 1.9, p < 0.04 (t-test)): 4.9 ± 1
tumor volume ratio (2nd/1st MRI, enhancing lesions, T1) ([2]; 2μg/kg/day, intracranial Alzet pump, 7 days, day 12/day 5, n = 9, control 12.2 ± 2.4, p = 0.16 (t-test)): 9.8 ± 1.2
survival, combined SIXAC groups relative to controls (in words) ([3]; 2μg/kg/day and 20μg/kg/day combined): robust effect of treatment
survival rate vs. saline, moderate dose (in words) ([3]; 2μg/kg/day, log-rank test, one tailed p = 0.01): significantly prolonged in comparison to the saline treated group
median survival, high dose ([3]; 20μg/kg/day, intracranial Alzet pump, 14 days, n = 14, control 16 days, log-rank one tailed p < 0.05): 17 days
survival rate vs. saline, high dose (in words) ([3]; 20μg/kg/day, log-rank test, one tailed p < 0.05): less pronounced effect for the high dose group
survival, trend over three groups (in words) ([3]; saline, 2μg/kg/day, 20μg/kg/day, log-rank test for trend p = 0.030): significant trend of prolonged survival
